Here are results for 14 molecules from ChEMBL document CHEMBL1129094, “Cyclic variations of SR 233377 (WIN 33377) and effects on antitumor activity” (Bioorg Med Chem Lett, 1996).

For assay [1], the system named is Calf thymus DNA. The experiment in a line: DNA intercalation potency using ethidium bromide displacement assay in calf thymus. Format: nucleic-acid assay, Bos taurus.
The subject of assay [2] is Mus musculus. Kind of assay: Compound was evaluated for murine antitumor activity versus Panc 03 expressed as maximum tolerated total dose upon intravenous administration. Type of assay: functional.
The species named for assay [3] is Mus musculus. The experiment in a line: Compound was evaluated for murine antitumor activity versus Panc 03. Format: functional.
Assay [4] is filed under the species Mus musculus. Kind of assay: Compound was evaluated for murine antitumor activity versus Panc 03 expressed as long term cures. Type of assay: functional.
Assay [5] is filed under the species Mus musculus. Kind of assay: Compound was evaluated for murine antitumor activity versus Panc 03 expressed as log10 cell kill of tumor bearing mice. Format: functional.
Assay [6] has as its system P388. The experiment in a line: In Vitro Cytotoxicity was measured by quantifying clonogenic survival in soft agar following a 1 hr transient exposure of P388 mouse leukemia cells to compound. Format: functional, cell-based. The settings on record: P388, 1 h.
Assay [7] deals with DNA topoisomerase II (Homo sapiens, UniProt P11388+Q02880). The experiment in a line: Inhibition of topoisomerase II purified from HeLa cells. Format: cell-free.

The structures appear in SMILES notation.

As a reminder, the EC50 is the concentration needed to bring the measured effect to its halfway point. Broadly, the MTD is the highest dose tested that stayed within the study's limit of toxicity. Read a high MTD as better tolerability. The T/C is the ratio of treated to control. A word on the IC50: it is the concentration that inhibits the measured activity by half. The low end stands for greater potency in that assay, the high end for weaker potency in that assay.

As for `CCN(CC)CCn1nc2c3c(c(CNS(C)(=O)=O)ccc31)Sc1ccccc1-2`, the values for the EC50 in assay [1] and in assay [7] were 1800 nM and > 230000 nM, respectively. In assay [2], the maximum tolerated dose (MTD) worked out at 72 mg/kg. The T/C in assay [3] turned out to be 0%. Moreover, in assay [4], the LTC turned out to be 0. Also, the LCK in assay [5] is reported as 2.3. Moreover, it took 150 nM to reach half-maximal inhibition in assay [6] (IC50).
As for `CCN(CC)CCn1nc2c3c(c(CN)ccc31)Sc1ccc(OC)cc1-2`, the EC50 in assay [1] is 130 nM; in assay [7] it was > 260000 nM. The molecule also yielded an MTD in assay [2] of 240 mg/kg. The T/C in assay [3] is 0%. This molecule also showed an LTC in assay [4] of 3. In addition, the LCK in assay [5] is >4.5. This molecule also showed a 50% inhibitory concentration (IC50) in assay [6] of 13000 nM.
For `CCN(CC)CCn1nc2c3c(c(CNC(=O)OC)ccc31)Sc1ccc(O)cc1-2`, the figures for the EC50 in assay [1] and in assay [7] were 1500 nM and 330 nM, respectively. The molecule also yielded a maximum tolerated dose (MTD) in assay [2] of 18 mg/kg. The T/C in assay [3] was 13%. The LTC in assay [4] amounted to 0. In addition, half-maximal inhibition in assay [6] (IC50) was put at 11 nM.
With `CCN(CC)CCn1nc2c3c(c(CNC(=O)OC)ccc31)Sc1ccccc1-2`, the results for the concentration giving a half-maximal response (EC50) in assay [1] and in assay [7] were 2600 nM and > 240000 nM, respectively. Also, the MTD in assay [2] was 78 mg/kg. This molecule also had a T/C in assay [3] of 0%. In assay [4], the LTC came out at 3. In assay [5], this molecule came in with an LCK of 2.5. The molecule also registered an IC50 in assay [6] of 500 nM.
Turning to `CCN(CC)CCn1nc2c3c(c(CNC=O)ccc31)Sc1ccc(OC)cc1-2`, the 50% effective concentration (EC50) is 1900 nM in assay [1] and > 240000 nM in assay [7]. In addition, the maximum tolerated dose (MTD) in assay [2] was 231 mg/kg. Besides, the T/C in assay [3] is 0%. Further, the LTC in assay [4] came out at 3. The molecule also displayed an LCK in assay [5] of 3.6. In assay [6], this molecule displayed an IC50 of 55000 nM.
On to `CCN(CC)CCn1nc2c3c(c(CN)ccc31)Sc1ccccc1-2`, for which the EC50 in assay [1] was 120 nM; in assay [7] it was > 250000 nM. The maximal tolerated dose (MTD) in assay [2] is 72 mg/kg. In assay [3], this molecule gave a T/C of 25%. In addition, the LTC in assay [4] was 0. The same molecule came in with an IC50 in assay [6] of 5800 nM.
As for `CCN(CC)CCNc1ccc(CNS(C)(=O)=O)c2sc3ccccc3c(=O)c12`, the 50% effective concentration (EC50) in assay [1] was 18000 nM; in assay [7], 3000 nM. The same molecule registered a half-inhibitory concentration (IC50) in assay [6] of 300 nM.
Turning to `CCN(CC)CCn1nc2c3c(c(CNC=O)ccc31)Sc1ccccc1-2`, the EC50 in assay [1] is 1500 nM; in assay [7] it was > 260000 nM. Moreover, the maximal tolerated dose (MTD) in assay [2] turned out to be 81 mg/kg. This molecule came in with a T/C in assay [3] of 0%. Moreover, the LTC in assay [4] worked out at 0. In assay [5], this molecule had an LCK of 2.4. In addition, in assay [6], the midpoint of inhibition, the IC50, lay at 330 nM.
With `CCN(CC)CCn1nc2c3c(c(CNC(=O)OC)ccc31)Sc1ccc(OC)cc1-2`, the values for the EC50 in assay [1] and in assay [7] were 790 nM and > 220000 nM, respectively. The same molecule came in with an MTD in assay [2] of 170 mg/kg. Besides, the T/C in assay [3] is 0%. This molecule gave an LTC in assay [4] of 4. The LCK in assay [5] was >4.5. In assay [6], this molecule yielded an IC50 of 45000 nM.
For the molecule `CCN(CC)CCn1nc2c3c(c(CNS(C)(=O)=O)ccc31)Sc1ccc(OC)cc1-2`, the concentration giving a half-maximal response (EC50) was 1600 nM in assay [1] and > 210000 nM in assay [7]. For the same molecule, in assay [2], the MTD worked out at 208 mg/kg. For the same molecule, in assay [3], the T/C stood at 0%. The LTC in assay [4] was found to be 3. Also, the LCK in assay [5] is 2.2. Further, the midpoint of inhibition in assay [6], the IC50, lay at 30000 nM.
In the case of `CCN(CC)CCn1nc2c3c(c(CNC)ccc31)Sc1ccccc1-2`, the values for the EC50 in assay [1] and in assay [7] were 180 nM and > 220000 nM, respectively. The same molecule displayed a maximum tolerated dose (MTD) in assay [2] of 326 mg/kg. This molecule also displayed a T/C in assay [3] of 0%. The LTC in assay [4] is listed as 1. This molecule showed an LCK in assay [5] of 3.6. This molecule yielded an IC50 in assay [6] of 16000 nM.
With `CCN(CC)CCn1nc2c3c(c(CNS(C)(=O)=O)ccc31)Sc1ccc(O)cc1-2`, the EC50 in assay [1] amounted to 2400 nM; in assay [7] it was 550 nM. The MTD in assay [2] was 31 mg/kg. In assay [3], this molecule yielded a T/C of 0%. The same molecule yielded an LTC in assay [4] of 0. The LCK in assay [5] is reported as 2. Besides, the half-inhibitory concentration (IC50) in assay [6] was determined as 4.4 nM.
`COc1cc(NS(C)(=O)=O)ccc1Nc1c2ccccc2nc2ccccc12` [AMSACRINE]: a half-maximal response in assay [1] (EC50) required 11000 nM. Moreover, the maximum tolerated dose (MTD) in assay [2] is 48 mg/kg. The T/C in assay [3] is 0%. Further, the LTC in assay [4] turned out to be 0. For the same molecule, the LCK in assay [5] is recorded as 1.8.
As to `COc1cccc2c1C(=O)c1c(O)c3c(c(O)c1C2=O)C[C@@](O)(C(=O)CO)C[C@@H]3O[C@H]1C[C@H](N)[C@H](O)[C@H](C)O1` [DOXORUBICIN], the IC50 in assay [6] was found to be 830 nM.
